In ChEMBL document CHEMBL1201862, “PubChem BioAssay data set” (2004):
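Assay format: 96-well plates, 48-hour exposure. Abbreviation: GI50, concentration required for 50% inhibition of growth.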 Activity calls are given as the source filed them. Cut-off read from the data, not from the text of the source: active = GI50 up to about 1.1 µM and inactive = higher.

Tests used:
Experiment in all cases: growth of human tumour cells (NCI), 48 h
[1] = test system: NCI-H226
[2] = test system: HOP-62
[3] = test system: A549
[4] = test system: SF-539
[5] = test system: ACHN
[6] = test system: DMS-114
[7] = test system: UACC-62
[8] = test system: UACC-257
[9] = test system: SR
[10] = test system: EKVX
[11] = test system: OVCAR-5
[12] = test system: LOX IMVI
[13] = test system: XF498
[14] = test system: HOP-92
[15] = test system: MDA-MB-231
[16] = test system: NCI/ADR-RES
[17] = test system: Hs-578T
[18] = test system: BT-549
[19] = test system: DU-145
[20] = test system: MDA-N

Measured: GI50

CC1CC(C[N+](=O)[O-])CC2(C1)OCCO2 (stereo not given)
inactive: [1] > 100 µM | [2] > 100 µM | [3] > 100 µM | [4] > 100 µM | [5] > 100 µM | [6] > 100 µM | [7] > 100 µM | [8] > 100 µM | [9] > 100 µM

OC1CCOc2ccccc21 (stereo not given)
inactive: [1] > 100 µM | [2] > 100 µM | [3] > 100 µM | [4] > 100 µM | [10] > 100 µM | [5] > 100 µM | [11] > 100 µM | [12] > 100 µM | [6] > 100 µM | [13] > 100 µM | [7] > 100 µM | [9] > 100 µM

COc1ccc(C(=O)NNC(=O)c2nsc3ccccc23)cc1
inactive: [2] 44.5 µM | [3] > 100 µM | [4] > 100 µM | [10] 27.2 µM | [11] > 100 µM | [12] 58.2 µM | [6] 63 µM | [14] 40.1 µM | [7] > 100 µM | [8] > 100 µM

Cn1c(=O)c(C#N)c(O)c2cc3ccccc3nc21
inactive: [1] > 100 µM | [3] > 100 µM | [4] > 100 µM | [10] > 100 µM | [5] > 100 µM | [12] > 100 µM | [6] > 100 µM | [14] > 100 µM | [13] > 100 µM | [8] > 100 µM | [9] > 100 µM

O=C(NN1C(=O)CSC1c1cccc(F)c1)c1ccncc1 (stereo not given)
inactive: [3] > 100 µM | [4] > 100 µM | [10] > 100 µM | [5] > 100 µM | [11] > 100 µM | [12] > 100 µM | [6] > 100 µM | [13] > 100 µM | [7] > 100 µM | [8] > 100 µM

Cc1ccc(/N=N/C(C(=O)c2ccccc2)C(=O)c2ccccc2)cc1
inactive: [1] 17.6 µM | [2] 21.1 µM | [3] 27.3 µM | [4] 22.4 µM | [10] 30.7 µM | [5] 26.6 µM | [11] 22.2 µM | [6] 20.1 µM | [14] 13.6 µM | [13] 20.1 µM | [7] 16.4 µM | [8] 29.4 µM

Cc1cc(=O)c2c([nH]1)NS(=O)(=O)NC2=O
inactive: [1] > 100 µM | [2] > 100 µM | [3] > 100 µM | [4] > 100 µM | [10] > 100 µM | [14] > 100 µM | [13] > 100 µM | [7] > 100 µM | [8] > 100 µM | [9] > 100 µM

O=C(OCCOC(=O)c1ccc2c(c1)C1(SCCS1)c1ccccc1-2)c1ccc2c(c1)C1(SCCS1)c1ccccc1-2
inactive: [1] > 100 µM | [2] > 100 µM | [3] > 100 µM | [4] > 100 µM | [10] > 100 µM | [5] > 100 µM | [11] > 100 µM | [12] > 100 µM | [6] > 100 µM | [7] > 100 µM | [8] > 100 µM | [9] > 100 µM

CC1CC2=C(S(=O)(=O)c3ccccc3)CC(S(=O)(=O)c3ccccc3)(S(=O)(=O)c3ccccc3)CC21 (stereo not given)
inactive: [1] > 100 µM | [2] > 100 µM | [3] > 100 µM | [4] > 100 µM | [10] > 100 µM | [5] > 100 µM | [11] > 100 µM | [12] > 100 µM | [6] 9.64 µM | [13] > 100 µM | [7] > 100 µM | [8] > 100 µM | [9] > 100 µM

CCOc1ccc2c(C)cc(=O)oc2c1
inactive: [15] > 100 µM | [16] > 100 µM | [1] > 100 µM | [2] > 100 µM | [17] > 100 µM | [18] > 100 µM | [19] > 100 µM | [20] > 100 µM | [3] > 100 µM | [4] > 100 µM | [10] > 100 µM | [5] > 100 µM | [11] > 100 µM | [12] > 100 µM | [14] > 100 µM | [7] > 100 µM | [8] > 100 µM | [9] > 100 µM

Cc1ccc(OCC2OC(n3cnc4c(Cl)nc(N)nc43)CC2Oc2ccc(C)cc2)cc1 (stereo not given)
inactive: [15] 22.4 µM | [16] 34.4 µM | [1] > 43.5 µM | [2] > 36.1 µM | [17] 39.4 µM | [18] 43.3 µM | [19] 40.8 µM | [20] 7.93 µM | [3] 6.73 µM | [4] > 55.7 µM | [10] 9.2 µM | [5] 15.6 µM | [11] 34.3 µM | [12] 47.9 µM | [14] 11 µM | [7] > 63.5 µM | [8] 63.7 µM | [9] 36 µM
